# Source: patent US11167006B2 (Shanghai Tianci Life Science Development Co., Ltd., priority 2016, dated 2021)
# Square brackets hold non-standard residues; d marks the D form. Peptide text beside a SMILES is read from it. NMeF = CN[C@@H](Cc1ccccc1)C(=O)O
# Tests used:
# [1] = test system: movement activity of mice; assay: Movement activity, open field experiment; type: in vivo, mouse; details: subcutaneous 10 mg/kg
# Procedure: The movement activity of the mice was tested by open field experiments. The experimental device is consisted of a 50×50×50 cm topless black plexiglass box and a movement monitoring system. The experiment was carried out in a soundproof environment with an indoor temperature being controlled at 22±1° C. After the experiment was started, the mice were first recorded for free movement within 30 minutes, and then compound 9 or morphine was administered subcutaneously, the movement of the mice was detected for another 150 minutes. Before the experiment for each mouse was started, the whole box was wiped with alcohol as a whole to exclude the residual odor of the previous mouse from affecting the accuracy of the data.
# (§1) The experimental data were expressed as mean±standard error (Means±S.E.M.), and the data for differences between groups treated with different drugs were analyzed by one-way ANOVA (Bonferroni test in one-way ANOVA) for statistics and analysis, ***P<0.001 represents that there was a significant difference between the movement activity of the drug-treated group and that of the saline group.
# [2] = test system: neuralgia induced by chronic compression of the sciatic nerve in mice; assay: CCI neuralgia model (thermal and mechanical pain); type: in vivo, mouse
# Procedure: The chronic compression model of the sciatic nerve (CCI) was mainly used for the mouse neuralgia. The detection method uses thermal tingling instrument and electronic Von Frey tenderness instrument to simultaneously detect thermal pain and mechanical pain. Firstly, the basic pain threshold of thermal pain and mechanical pain in normal mice were determined respectively. The mice were then anesthetized with sodium pentobarbital (i.p., 80 mg/kg mouse body weight) and the mice were fixed in the prone position. The right sciatic nerve was exposed and 3 mild ligation rings were made around the sciatic nerve using a 4-0 chromic catgut, 1 mm intervals. The ligation intensity is preferably a slight tremor in the right hind leg. On the 10th day after surgery, the thermal pain sensitivity value of the right hind paw of the mouse was measured, and then compound 9 was intrathecally or subcutaneously administered, and the thermal pain threshold at different time points after administration were recorded. On the 11th day after surgery, the mechanical pain sensitivity value of the right hind paw of the mouse was measured, and then Compound 9 was intrathecally or subcutaneously administered, and the mechanical pain threshold at different time points after administration were recorded.
# as §1, with “drug concentrations” for “drugs”, “analysis, **P<0.01,” for “analysis,”, “pain threshold value” for “movement activity”
# First, the maximum analgesic effect (MPE) was calculated, MPE (%)=100×[(pain threshold after administration−pain sensitivity value of the hind paw in surgical side)/(basic pain threshold−pain sensitivity value of the hind paw in surgical side)].
# [3] = test system: acute pain caused by photothermal therapy in male mice of Kunming strain; assay: Mouse photothermal tail flick analgesia experiment; type: in vivo
# Procedure: After the drug was injected into the lateral ventricle, intrathecal, subcutaneous, and intraperitoneal, the modulating activity on pain was measured by the photothermal tail flick test in mouse.
# In the lateral ventricle administration, the lateral ventricle tube-buried surgery of the mouse should be performed in advance to ensure the accuracy of the drug injection site. A brain stereotaxic instrument was used in the lateral ventricle tube-buried surgery of the mouse. Male mice of Kunming strain, weighing 21±2 g; brain stereotaxic instrument is Jiangwan I. After the mice were anesthetized with sodium pentobarbital (i.p., 80 mg/kg mouse body weight), the hair in the head surgery area of the mouse was cut off and the mouse was placed on the brain stereotactic instrument and fixed. The surgery area was disinfected with iodophor, the scalp was opened along the sagittal suture to reveal the skull and the position of the anterior fontanelle can be found. 3 mm backward and 1 mm left/right from the anterior fontanelle, the upper position of the lateral ventricle can be found. A self-made stainless steel tube (a section of 24-gauge, which is connected to a small section of PE-10 tube) is inserted 3 mm downward according to the above position, which is the lateral ventricle. A section of stainless steel string (28-gauge) is inserted into the above-mentioned steel tube to prevent cerebrospinal fluid spillage and foreign matter infection and block the steel pipe. The steel tube is fixed with medical dental powder and glue, and after solidification, the wound is sutured. After the surgery, the mice were recovered tier 4 days, and the follow-up experiment was started on the 5th day. Surgical instruments, stainless steel tubes, etc. involved in the experiment need to be disinfected before the surgery. The mouse lateral ventricle was injected with 4 μl of the drug each time, and then the steel tube was rinsed with 1 μl of physiological saline.
# Spinal cord level administration is performed by intrathecal injection in conscious mice, and the specific procedure is described in the method reported by Hylden and Wilcox (Eur. J. Pharmacol. 1980, 67: 313). A 25 μL microinjector was inserted directly into the subarachnoid space between L5 and L6.
# The intraperitoneal administration was directly injected using a 1 mL syringe at an injection volume of 10 μl/g body weight. At the time of injection, the mouse was held by left hand with their abdomen facing up and the head was at low position while the tail was at high position. The side of the midline of the abdomen was taken, the needle hole of the syringe was upward, the needle tip penetrates into the skin in a direction less than 20 degrees, the needle tip was slightly pushed in the direction of the mouse head and sticking abdominal wall, and then punctures into the abdominal cavity in the direction of 45 degrees, and was withdrawn to confirm that it has not been pierced into the blood vessel or the intestine, afterwards the drug solution is slowly pushed out.
# Subcutaneous injection was also administered directly using a 1 mL syringe in an injection volume of 10 μl/g body weight. At the time of injection, the neck and tail of the mouse were fixed in the left hand, and the head and body were inclined downward at 45 degrees. The needle hole of the syringe is upward, the needle tip is slowly pierced into the skin on the right side of the back center line at an angle of less than 20 degrees, and the needle tip is lightly picked up to confirm that there is no piercing, afterwards the drug solution is slowly pushed out.
# Male mice of Kunming strain were used to detect the effects of drugs on pain perception using a photothermal tail flick instrument. The ambient temperature is controlled at 22±1° C., and the experimental animals are free to eat and drink. The basic tail flick incubation period (3-5 seconds) was determined prior to administration, and mice that were too sensitive or dull were discarded. […]
compound,measurement,setting,value
"C[C@@H](NC(=O)[C@@H](N)Cc1ccc(O)cc1)C(=O)NCC(=O)N(C)[C@@H](Cc1ccccc1)C(=O)NCC(=O)N1CCC[C@H]1C(=O)N[C@@H](CCC(N)=O)C(=O)N[C@@H](CCCNC(=N)N)C(=O)N[C@@H](Cc1ccccc1)C(N)=O [Compound 9, Tyr-D-Ala-Gly-NMe-Phe-Gly-Pro-Gln-Arg-Phe-NH2] (H-Y[dA]G[NMeF]GPQRF-NH2)",total distance of movement,[1],71.39 m
same,"analgesic ED50 value, thermal hyperalgesia",[2]; intrathecal,1.74 (1.38-2.20) pmol
same,"analgesic ED50 value, mechanical hyperalgesia",[2]; subcutaneous,3.51 (3.28-3.74) mg/kg
same,"analgesic ED50 value, thermal hyperalgesia",[2]; subcutaneous,3.12 (2.77-3.51) mg/kg
same,analgesia ED50 value,[3]; abdominal (intraperitoneal),26.58 mg/kg
same,analgesic potency relative to BN-9,[3]; intrathecal,218 times
same,analgesic ED50 value,[3]; intrathecal administration,1.33 pmol
same,maximum analgesic MPE value,"[3]; intrathecal, 5 pmol",94.7%
same,analgesic ED50 value,[3]; lateral ventricle administration,16.3 pmol
same,"ED50 value (nmol) (95% confidence interval), analgesic activity",[3]; lateral ventricle injection,0.0163 (0.0145 to 0.0182) nmol
same,analgesic potency relative to BN-9,"[3]; lateral ventricle, from ED50 values",23.9 times
same,analgesia ED50 value,[3]; subcutaneous,0.2279 mg/kg
